Laboratory results taken from US11958834B2, “Inhibitors of human immunodeficiency virus replication” (VIIV HEALTHCARE UK (No. 5) LIMITED, priority 2018, dated 2024).

Columns and labels:
Format in all cases: cell-based
[1] = tested on: recombinant NL4-3 virus (Renilla luciferase) in MT-2 cells; test: HIV cell culture assay (antiviral activity, luciferase readout)
Procedure: HIV cell culture assay—MT-2 cells, 293T cells and the proviral DNA clone of NL4-3 virus were obtained from the NIH AIDS Research and Reference Reagent Program. MT-2 cells were propagated in RPMI 1640 media supplemented with 10% heat inactivated fetal bovine serum (FBS), 100 μg/ml penicillin G and up to 100 units/mL streptomycin. The 293T cells were propagated in DMEM media supplemented with 10% heat inactivated FBS, 100 μg/mL penicillin G and 100 μg/mL streptomycin. A recombinant NL4-3 proviral clone, in which a section of the nef gene was replaced with the Renilla luciferase gene, was used to make the reference virus used in these studies. The recombinant virus was prepared through transfection of the recombinant NL4-3 proviral clone into 293T cells using Transit-293 Transfection Reagent from Mirus Bio LLC (Madison, Wis.). Supernatant was harvested after 2-3 days and the amount of virus present was titered in MT-2 cells using luciferase enzyme activity as a marker by measuring luciferase enzyme activity. Luciferase was quantitated using the EnduRen Live Cell Substrate from Promega (Madison, Wis.). Antiviral activities of compounds toward the recombinant virus were quantified by measuring luciferase activity in MT-2 cells infected for 4-5 days with the recombinant virus in the presence of serial dilutions of the compound.
The 50% effective concentration (EC50) was calculated by using the exponential form of the median effect equation where (Fa)=1/[1+(ED50/drug conc.)^m] (Johnson V A, Byington R T. Infectivity Assay. In Techniques in HIV Research. ed. Aldovini A, Walker B D. 71-76. New York: Stockton Press. 1990).

[2] = Compound cytotoxicity, XTT-based colorimetric assay; conditions: human; uninfected MT2 cells, day 4, XTT
Procedure: (§1) Compound cytotoxicity and the corresponding CC50 values were determined using the same protocol as described in the antiviral assay except that uninfected cells were used. Cytotoxicity was assessed on day 4 in uninfected MT2 cells by using a XTT (2,3-bis[2-Methoxy-4-nitro-5-sulfophenyl]-2H-tetrazolium-5-carboxyanilide inner salt)-based colorimetric assay (Sigma-Aldrich, St Louis, Mo.).

uninfected MT2 cells = test: as above; conditions: day 4, XTT
Procedure: as §1

[3] = MT-2 cells infected for 4-5 days with recombinant NL4-3 Renilla luciferase virus
[4] = Renilla, NL43, MT-2 cells infected for 4-5 days with recombinant NL4-3 Renilla luciferase virus

SMILES | EC50 [1, 3] [µM] | CC50 at 4 days [2] [µM] | CC50 (uninfected MT2 cells) [µM] | EC50 [1, 4] [µM]
Cn1nc(NS(C)(=O)=O)c2c(Cl)ccc(-n3c([C@H](Cc4cc(F)cc(F)c4)NC(=O)Cn4nc(C(F)F)c5c4C(F)(F)[C@@H]4C[C@H]54)nccc3=O)c21 (mixture of isomers) [Example 1, N—((S)-1-(1-(4-chloro-1-methyl-3-(methylsulfonamido)-1H-indazol-7-yl)-6-oxo-1,6-dihydropyrimidin-2-yl)-2-(3,5-difluorophenyl)ethyl)-2-((3bS,4aR)-3-(difluoromethyl)-5,5-difluoro-3b,4,4a,5-tetrahydro-1H-cyclopropa[3,4]cyclopenta[1,2-c]pyrazol-1-yl)acetamide] | 0.0327 | > 1 |  | 
Cn1nc(NS(C)(=O)=O)c2c(Cl)ccc(-n3c([C@H](Cc4cc(F)cc(F)c4)NC(=O)Cn4nc(C(F)F)c5c4C(F)(F)[C@@H]4C[C@H]54)nccc3=O)c21 (mixture of isomers) [Example 2, N—((S)-1-(1-(4-chloro-1-methyl-3-(methylsulfonamido)-1H-indazol-7-yl)-6-oxo-1,6-dihydropyrimidin-2-yl)-2-(3,5-difluorophenyl)ethyl)-2-((3bS,4aR)-3-(difluoromethyl)-5,5-difluoro-3b,4,4a,5-tetrahydro-1H-cyclopropa[3,4]cyclopenta[1,2-c]pyrazol-1-yl)acetamide] | 0.000118 |  | > 1 | 
Cn1nc(NS(C)(=O)=O)c2c(Cl)ccc(-n3c([C@@H](Cc4cc(F)cc(F)c4)NC(=O)Cn4nc(C(F)F)c5c4C(F)(F)[C@@H]4C[C@H]54)nccc3=O)c21 [Example 3, N—((R)-1-((1M)-1-(4-chloro-1-methyl-3-(methylsulfonamido)-1H-indazol-7-yl)-6-oxo-1,6-dihydropyrimidin-2-yl)-2-(3,5-difluorophenyl)ethyl)-2-((3bS,4aR)-3-(difluoromethyl)-5,5-difluoro-3b,4,4a,5-tetrahydro-1H-cyclopropa[3,4]cyclopenta[1,2-c]pyrazol-1-yl)acetamide] |  | > 1 |  | 0.0127
Cn1nc(NS(C)(=O)=O)c2c(Cl)ccc(-n3c([C@H](Cc4cc(F)cc(F)c4)NC(=O)Cn4nc(C(F)F)c5c4C(F)(F)[C@@H]4C[C@H]54)nccc3=O)c21 [Example 4] |  |  | > 1 | 0.000554
Cn1nc(NS(C)(=O)=O)c2c(Cl)ccc(-n3c([C@@H](Cc4cc(F)cc(F)c4)NC(=O)Cn4nc(C(F)(F)F)c5c4C(F)(F)[C@@H]4C[C@H]54)nccc3=O)c21 [Example 5, N—((R)-1-((1M)-1-(4-chloro-1-methyl-3-(methylsulfonamido)-1H-indazol-7-yl)-6-oxo-1,6-dihydropyrimidin-2-yl)-2-(3,5-difluorophenyl)ethyl)-2-((3bS,4aR)-5,5-difluoro-3-(trifluoromethyl)-3b,4,4a,5-tetrahydro-1H-cyclopropa[3,4]cyclopenta[1,2-c]pyrazol-1-yl)acetamide] |  | > 1 |  | 0.07
Cn1nc(NS(C)(=O)=O)c2c(Cl)ccc(-n3c([C@H](Cc4cc(F)cc(F)c4)NC(=O)Cn4nc(C(F)(F)F)c5c4C(F)(F)[C@@H]4C[C@H]54)nccc3=O)c21 [Example 6, N—((S)-1-((1P)-1-(4-chloro-1-methyl-3-(methylsulfonamido)-1H-indazol-7-yl)-6-oxo-1,6-dihydropyrimidin-2-yl)-2-(3,5-difluorophenyl)ethyl)-2-((3bS,4aR)-5,5-difluoro-3-(trifluoromethyl)-3b,4,4a,5-tetrahydro-1H-cyclopropa[3,4]cyclopenta[1,2-c]pyrazol-1-yl)acetamide] |  | > 1 |  | 0.000493
